From patent US20250018047A1, “METHODS AND COMPOSITIONS FOR TARGETED PROTEIN DEGRADATION” (Ranok Therapeutics (Hangzhou) Co. Ltd., priority 2021, published 2025)
Counter-ions that a name gives are not always drawn.

How the values were obtained:
[1] = test system: AsPC-1 human pancreatic adenocarcinoma; experiment: CellTiter-Glo cancer cell line proliferation assay, AsPC-1; type: cell-based; settings: Homo sapiens, ASPC1, 24 hr
Outline: (§1)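 Cells plated at 4,000/well, grown 24 h at 37 °C/5% CO2, then exposed to compound concentration series (0.5% DMSO final) for 24 h. Viability read by CellTiter-Glo luminescence; IC50 values calculated.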

[2] = target: BA/F3-KRAS(G12D) murine pro-B cell line stably expressing KRAS(G12D) (Homo sapiens, UniProt P01116, G12D, cells depend on it); experiment: CellTiter-Glo cancer cell line proliferation assay, BA/F3-KRAS(G12D); type: cell-based; settings: 24 hr, read-out: BAF3 at 24 hrs, IC50
Sequence of BA/F3-KRAS(G12D) murine pro-B cell line stably expressing KRAS(G12D) (P01116 whole entry G12D): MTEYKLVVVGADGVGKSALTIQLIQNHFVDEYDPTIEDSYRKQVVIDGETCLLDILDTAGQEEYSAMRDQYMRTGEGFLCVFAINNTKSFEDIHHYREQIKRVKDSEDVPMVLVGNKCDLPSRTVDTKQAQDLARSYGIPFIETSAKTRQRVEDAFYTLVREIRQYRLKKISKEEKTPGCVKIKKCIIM
Outline: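 BA/F3 cells expressing KRAS(G12D), 4,000/well in RPMI 1640 + 10% FCS, exposed 24 h at 37 °C to 3-fold dilutions (20 μM to 1.02 nM, 0.5% DMSO). Viability by CellTiter-Glo luminescence; IC50 calculated from the dose-response.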

KRAS(G12D)/SOS1 = target: T1, KRAS(G12D)/SOS1 (Homo sapiens, UniProt P01116, G12D); experiment: KRAS(G12D)/SOS1 homogeneous time-resolved fluorescence (HTRF) assay; type: binding; settings: absence of GTP, 4° C. for 3 hr
T1 construct: purchased Cisbio 63ADK000CB16PEG
T1 sequence (P01116 1-188 isoform P01116-2 G12D): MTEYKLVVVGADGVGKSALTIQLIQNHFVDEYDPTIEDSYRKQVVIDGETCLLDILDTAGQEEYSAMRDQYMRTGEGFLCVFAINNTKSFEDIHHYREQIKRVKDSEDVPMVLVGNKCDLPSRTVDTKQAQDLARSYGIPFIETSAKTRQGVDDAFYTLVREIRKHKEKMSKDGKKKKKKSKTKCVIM
Experimental: The test compound was mixed and incubated with reaction components, incubated in a sealed plate at 4° C. for 3 hr and fluorescence was measured using a PerkinElmer Envision plate reader.

[3] = test system: A-427 human lung carcinoma; experiment: CellTiter-Glo cancer cell line proliferation assay, A-427; type: cell-based; settings: Homo sapiens, A-427, 24 hr, read-out: A427 at 24 hrs, IC50
Outline: as §1

## C#Cc1cccc2cccc(-c3ncc4c(N5CC6CCC(C5)N6)nc(OC[C@@H]5C[C@H](N6CCN(CC7CCN(c8ccc9c(c8)C(=O)N(C8CCC(=O)NC8=O)C9=O)CC7)CC6)CN5C)nc4c3F)c12 (stereo partly drawn) [Compound 5, 5-(4-((4-((3S,5S)-5-(((4-(3,8-diazabicyclo[3.2.1]octan-3-yl)-7-(8-ethynylnaphthalen-1-yl)-8-fluoropyrido[4,3-d]pyrimidin-2-yl)oxy)methyl)-1-methylpyrrolidin-3-yl)piperazin-1-yl)methyl)piperidin-1-yl)-2-(2,6-dioxopiperidin-3-yl)isoindoline-1,3-dione hydrochloride]
[1]
  IC50: > 1000 nM
[2]
  GI50: 100 to 1000 nM
KRAS(G12D)/SOS1
  IC50: < 100 nM
[3]
  IC50: > 1000 nM

## C#Cc1cccc2cccc(-c3ncc4c(N5CC6CCC(C5)N6)nc(OCC5(CN6CCN(Cc7ccc8c(c7)CN(C7CCC(=O)NC7=O)C8=O)CC6)CC5)nc4c3F)c12 (stereo not shown) [Compound 31, 3-(5-((4-((1-(((4-(3,8-diazabicyclo[3.2.1]octan-3-yl)-7-(8-ethynylnaphthalen-1-yl)-8-fluoropyrido[4,3-d]pyrimidin-2-yl)oxy)methyl)cyclopropyl)methyl)piperazin-1-yl)methyl)-1-oxoisoindolin-2-yl)piperidine-2,6-dione formate]
[1]
  IC50: > 1000 nM
[2]
  GI50: > 1000 nM
KRAS(G12D)/SOS1
  IC50: < 100 nM
[3]
  IC50: > 1000 nM

## C#Cc1cccc2cccc(-c3ncc4c(N5CC6CCC(C5)N6)nc(OC[C@@H]5C[C@H](N6CCN(CC7CCN(c8cccc9c8C(=O)N(C8CCC(=O)NC8=O)C9=O)CC7)CC6)CN5C)nc4c3F)c12 (stereo partly drawn) [Compound 6, 4-(4-((4-((3S,5S)-5-(((4-(3,8-diazabicyclo[3.2.1]octan-3-yl)-7-(8-ethynylnaphthalen-1-yl)-8-fluoropyrido[4,3-d]pyrimidin-2-yl)oxy)methyl)-1-methylpyrrolidin-3-yl)piperazin-1-yl)methyl)piperidin-1-yl)-2-(2,6-dioxopiperidin-3-yl)isoindoline-1,3-dione hydrochloride]
[1]
  IC50: > 1000 nM
[2]
  GI50: > 1000 nM
KRAS(G12D)/SOS1
  IC50: < 100 nM
[3]
  IC50: > 1000 nM

## Cc1ncsc1-c1ccc(CNC(=O)[C@@H]2C[C@@H](O)CN2C(=O)[C@@H](NC(=O)C2CCN([C@H]3C[C@@H](COc4nc(N5CC6CCC(C5)N6)c5cnc(-c6cccc7cccc(Cl)c67)c(F)c5n4)N(C)C3)CC2)C(C)(C)C)cc1 [Compound 24, 1-((3S,5S)-5-(((4-(3,8-diazabicyclo[3.2.1]octan-3-yl)-7-(8-chloronaphthalen-1-yl)-8-fluoropyrido[4,3-d]pyrimidin-2-yl)oxy)methyl)-1-methylpyrrolidin-3-yl)-N—((S)-1-((2S,4R)-4-hydroxy-2-((4-(4-methylthiazol-5-yl)benzyl)carbamoyl)pyrrolidin-1-yl)-3,3-dimethyl-1-oxobutan-2-yl)piperidine-4-carboxamide formate]
[1]
  IC50: > 1000 nM
[2]
  GI50: > 1000 nM
KRAS(G12D)/SOS1
  IC50: 100 to 1000 nM
[3]
  IC50: > 1000 nM

## CN1C[C@@H](N2CCC(C(=O)N3CCN(c4ccc5c(c4)C(=O)N(C4CCC(=O)NC4=O)C5=O)CC3)CC2)C[C@H]1COc1nc(N2CC3CCC(C2)N3)c2cnc(-c3cccc4cccc(Cl)c34)c(F)c2n1 (stereo partly drawn) [Compound 9, 5-(4-(1-((3S,5S)-5-(((4-(3,8-diazabicyclo[3.2.1]octan-3-yl)-7-(8-chloronaphthalen-1-yl)-8-fluoropyrido[4,3-d]pyrimidin-2-yl)oxy)methyl)-1-methylpyrrolidin-3-yl)piperidine-4-carbonyl)piperazin-1-yl)-2-(2,6-dioxopiperidin-3-yl)isoindoline-1,3-dione hydrochloride]
[1]
  IC50: > 1000 nM
[2]
  GI50: > 1000 nM
KRAS(G12D)/SOS1
  IC50: < 100 nM
[3]
  IC50: > 1000 nM

## C#Cc1cccc2cccc(-c3ncc4c(N5CC6CCC(C5)N6)nc(OC[C@@H]5C[C@H](N6CCN(C(=O)C7CCN(c8ccc9c(c8)C(=O)N(C8CCC(=O)NC8=O)C9=O)CC7)CC6)CN5C)nc4c3F)c12 (stereo partly drawn) [Compound 8, 5-(4-(4-((3S,5S)-5-(((4-(3,8-diazabicyclo[3.2.1]octan-3-yl)-7-(8-ethynylnaphthalen-1-yl)-8-fluoropyrido[4,3-d]pyrimidin-2-yl)oxy)methyl)-1-methylpyrrolidin-3-yl)piperazine-1-carbonyl)piperidin-1-yl)-2-(2,6-dioxopiperidin-3-yl)isoindoline-1,3-dione hydrochloride]
[1]
  IC50: > 1000 nM
[2]
  GI50: > 1000 nM
KRAS(G12D)/SOS1
  IC50: < 100 nM
[3]
  IC50: > 1000 nM

## CN1C[C@@H](N2CCC(C(=O)N3CCN(c4ccc5c(c4)C(=O)N(C4CCC(=O)NC4=O)C5=O)CC3)CC2)C[C@H]1COc1nc(N2CC3CCC(C2)N3)c2cnc(-c3cccc4ccccc34)c(F)c2n1 (stereo partly drawn) [Compound 19, 5-(4-(1-((3S,5S)-5-(((4-(3,8-diazabicyclo[3.2.1]octan-3-yl)-8-fluoro-7-(naphthalen-1-yl)pyrido[4,3-d]pyrimidin-2-yl)oxy)methyl)-1-methylpyrrolidin-3-yl)piperidine-4-carbonyl)piperazin-1-yl)-2-(2,6-dioxopiperidin-3-yl)isoindoline-1,3-dione formate]
[1]
  IC50: > 1000 nM
[2]
  GI50: > 1000 nM
KRAS(G12D)/SOS1
  IC50: 100 to 1000 nM
[3]
  IC50: > 1000 nM

## C#Cc1cccc2cccc(-c3ncc4c(N5CC6CCC(C5)N6)nc(OCC5(CN6CCN(Cc7ccc8c(c7)C(=O)N(C7CCC(=O)NC7=O)C8=O)CC6)CC5)nc4c3F)c12 (stereo not shown) [Compound 28, 5-((4-((1-(((4-(3,8-diazabicyclo[3.2.1]octan-3-yl)-7-(8-ethynylnaphthalen-1-yl)-8-fluoropyrido[4,3-d]pyrimidin-2-yl)oxy)methyl)cyclopropyl)methyl)piperazin-1-yl)methyl)-2-(2,6-dioxopiperidin-3-yl)isoindoline-1,3-dione formate]
[1]
  IC50: > 1000 nM
[2]
  GI50: > 1000 nM
KRAS(G12D)/SOS1
  IC50: < 100 nM
[3]
  IC50: > 1000 nM

## C#Cc1cccc2cccc(-c3ncc4c(N5CC6CCC(C5)N6)nc(OCC5(CN6CCN(C(=O)C7CCN(c8ccc9c(c8)C(=O)N(C8CCC(=O)NC8=O)C9=O)CC7)CC6)CC5)nc4c3F)c12 (stereo not shown) [Compound 30, 5-(4-(4-((1-(((4-(3,8-diazabicyclo[3.2.1]octan-3-yl)-7-(8-ethynylnaphthalen-1-yl)-8-fluoropyrido[4,3-d]pyrimidin-2-yl)oxy)methyl)cyclopropyl)methyl)piperazine-1-carbonyl)piperidin-1-yl)-2-(2,6-dioxopiperidin-3-yl)isoindoline-1,3-dione formate]
[1]
  IC50: > 1000 nM
[2]
  GI50: > 1000 nM
KRAS(G12D)/SOS1
  IC50: < 100 nM
[3]
  IC50: > 1000 nM

## CN1C[C@@H](N2CCC(C(=O)NCCOc3ccc4c(c3)C(=O)N(C3CCC(=O)NC3=O)C4=O)CC2)C[C@H]1COc1nc(N2CC3CCC(C2)N3)c2cnc(-c3cccc4cccc(Cl)c34)c(F)c2n1 (stereo partly drawn) [Compound 12, 1-((3S,5S)-5-(((4-(3,8-diazabicyclo[3.2.1]octan-3-yl)-7-(8-chloronaphthalen-1-yl)-8-fluoropyrido[4,3-d]pyrimidin-2-yl)oxy)methyl)-1-methylpyrrolidin-3-yl)-N-(2-((2-(2,6-dioxopiperidin-3-yl)-1,3-dioxoisoindolin-5-yl)oxy)ethyl)piperidine-4-carboxamide hydrochloride]
[1]
  IC50: > 1000 nM
[2]
  GI50: > 1000 nM
KRAS(G12D)/SOS1
  IC50: 100 to 1000 nM
[3]
  IC50: > 1000 nM
